pIC50: −log10 of the molar value.

The target in assay [1] is T1, Epidermal growth factor receptor (Homo sapiens, UniProt P00533).
Assay [2] has as its target T1, Epidermal growth factor receptor. Put plainly: Inhibition of EGFR autophosphorylation in DiFi cells.

T1 sequence (P00533 whole entry): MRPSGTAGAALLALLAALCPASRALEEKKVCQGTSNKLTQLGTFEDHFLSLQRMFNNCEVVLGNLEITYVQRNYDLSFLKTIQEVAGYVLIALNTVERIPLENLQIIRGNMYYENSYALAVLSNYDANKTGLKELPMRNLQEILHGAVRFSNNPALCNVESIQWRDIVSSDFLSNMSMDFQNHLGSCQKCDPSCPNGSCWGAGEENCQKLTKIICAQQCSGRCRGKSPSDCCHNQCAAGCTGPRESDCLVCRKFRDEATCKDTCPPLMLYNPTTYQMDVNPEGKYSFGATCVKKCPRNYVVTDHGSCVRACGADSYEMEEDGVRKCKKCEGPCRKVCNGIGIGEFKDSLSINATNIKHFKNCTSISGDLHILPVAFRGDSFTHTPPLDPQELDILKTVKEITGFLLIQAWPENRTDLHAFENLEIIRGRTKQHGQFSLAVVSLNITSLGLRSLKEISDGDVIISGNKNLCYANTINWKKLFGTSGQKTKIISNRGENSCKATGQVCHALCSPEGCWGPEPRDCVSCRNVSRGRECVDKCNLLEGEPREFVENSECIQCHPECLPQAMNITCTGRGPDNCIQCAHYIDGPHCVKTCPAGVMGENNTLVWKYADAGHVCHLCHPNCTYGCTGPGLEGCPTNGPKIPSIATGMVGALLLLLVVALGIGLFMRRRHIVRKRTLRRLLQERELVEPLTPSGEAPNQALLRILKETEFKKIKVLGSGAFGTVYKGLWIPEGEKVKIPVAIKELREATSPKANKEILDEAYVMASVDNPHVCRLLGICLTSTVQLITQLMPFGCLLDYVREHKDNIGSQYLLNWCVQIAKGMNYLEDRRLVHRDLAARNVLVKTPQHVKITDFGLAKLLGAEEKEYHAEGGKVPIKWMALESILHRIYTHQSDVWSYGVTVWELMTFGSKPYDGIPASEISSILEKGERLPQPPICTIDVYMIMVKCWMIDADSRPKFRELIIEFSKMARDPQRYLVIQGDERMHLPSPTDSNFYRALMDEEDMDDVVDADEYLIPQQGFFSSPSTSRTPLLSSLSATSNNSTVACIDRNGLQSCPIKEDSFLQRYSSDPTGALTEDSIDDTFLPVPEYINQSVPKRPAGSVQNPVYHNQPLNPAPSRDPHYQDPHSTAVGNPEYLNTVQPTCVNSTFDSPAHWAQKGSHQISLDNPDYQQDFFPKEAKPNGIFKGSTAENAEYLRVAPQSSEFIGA

Usually pIC50 stands for −log10 of the IC50, conventionally taken in molar units. High values mean a low IC50, low ones a high IC50. `CS(=O)(=O)Nc1ccc2c(c1)CNc1c(Nc3ccc(F)c(Cl)c3)ncnc1O2`: the pIC50 in assay [1] is < 5.00. For the compound `COc1cc2c(cc1OC)Oc1ncnc(Nc3ccc(F)c(Cl)c3)c1NC2`, the pIC50 in assay [2] is 6.16; in assay [1], 5.92.

As to `Nc1ccc2c(c1)CNc1c(Nc3cccc(Br)c3)ncnc1O2`, the pIC50 in assay [2] is < 4.52; in assay [1], 5.77. In assay [1], `Fc1ccc2c(c1)CNc1c(Nc3ccccc3)ncnc1O2` showed a pIC50 of 5.15. Regarding `FC(F)(F)Oc1ccc2c(c1)CNc1c(Nc3cccc(Br)c3)ncnc1O2`, the pIC50 in assay [1] was < 5.00.

With `Fc1ccc2c(c1)CNc1c(Nc3ccc(Cl)cc3)ncnc1O2`, in assay [1], the pIC50 is < 5.00. Turning to `C=CC(=O)Nc1ccc2c(c1)CNc1c(Nc3ccc(F)c(Cl)c3)ncnc1O2`, the pIC50 in assay [2] is 5.05; in assay [1] it was 5.31.

Turning to `COc1cc(OC)c2c(c1)Oc1ncnc(Nc3cccc(Br)c3)c1NC2`, the pIC50 in assay [2] was < 4.52; in assay [1], 5.20. Take `COc1ccc2c(c1)CNc1c(NCc3ccccc3)ncnc1O2`: the figures for the pIC50 in assay [2] and in assay [1] were 5.07 and 5.70, respectively. For `COc1ccc2c(c1)Oc1ncnc(Nc3cccc(Br)c3)c1NC2`, the pIC50 in assay [2] was 5.72; in assay [1] it was 5.52. In the same order, the values of `Fc1ccc2c(c1)CNc1c(Nc3cccc(Br)c3)ncnc1O2` are 5.16 and 5.82. In the same order, the values of `O=C(O)c1ccc2c(c1)CNc1c(Nc3cccc(Br)c3)ncnc1O2` are < 4.52 and 6.00. `COc1ccc2c(c1)CNc1c(Nc3ccc(Cl)cc3)ncnc1O2` had a pIC50 in assay [1] of 5.24. Consider `Fc1ccc(Nc2ncnc3c2NCc2cc(Cl)ccc2O3)cc1Cl`, for which the values for the pIC50 in assay [2] and in assay [1] were 5.37 and 6.00, respectively. In the same order, the values of `Nc1ccc2c(c1)CNc1c(Nc3ccc(F)c(Cl)c3)ncnc1O2` are 5.04 and 5.43. In the same order, the values of `Fc1ccc(Nc2ncnc3c2NCc2cc(Br)ccc2O3)cc1Cl` are 5.08 and 5.70. In the same order, the values of `Fc1ccc2c(c1)CNc1c(Nc3cccc(-c4ccccc4)c3)ncnc1O2` are 5.00 and 5.70. Consider `COc1ccc2c(c1)Oc1ncnc(Nc3ccc(F)c(Cl)c3)c1NC2`, for which the results for the pIC50 in assay [2] and in assay [1] were 5.05 and 6.00, respectively. In the same order, the values of `COc1ccc2c(c1)CNc1c(Nc3cccc(-c4ccccc4)c3)ncnc1O2` are 5.01 and < 5.00. In the same order, the values of `O=C(O)c1ccc2c(c1)CNc1c(Nc3ccc(F)c(Cl)c3)ncnc1O2` are < 4.52 and 5.36. In the same order, the values of `Clc1ccc2c(c1)CNc1c(Nc3cccc(Br)c3)ncnc1O2` are < 4.52 and 5.47. For the compound `Fc1ccc2c(c1)CNc1c(NCc3ccccc3)ncnc1O2`, the pIC50 in assay [2] is < 4.52; in assay [1], 5.05. In the same order, the values of `COc1cc2c(cc1OC)Oc1ncnc(Nc3cccc(Br)c3)c1NC2` are 6.33 and 6.47. `C=CC(=O)Nc1ccc2c(c1)CNc1c(Nc3cccc(Br)c3)ncnc1O2`: the results for the pIC50 in assay [2] and in assay [1] were 5.27 and 5.24, respectively.

Take `CS(=O)(=O)Nc1ccc2c(c1)CNc1c(Nc3cccc(Br)c3)ncnc1O2`: the pIC50 in assay [2] is 5.15; in assay [1], 5.39. For the compound `COc1cccc2c1CNc1c(Nc3cccc(Br)c3)ncnc1O2`, in assay [1], the pIC50 was < 5.00. Same read-out and setting: as for `Brc1ccc2c(c1)CNc1c(Nc3ccccc3)ncnc1O2`, the figure is 5.00; as for `COc1ccc2c(c1)CNc1c(Nc3ccccc3)ncnc1O2`, 5.12.

As for `COc1ccc2c(c1)CNc1c(Nc3cccc(Br)c3)ncnc1O2`, the pIC50 in assay [2] was 6.00; in assay [1], 5.51. In the same order, the values of `Brc1cccc(Nc2ncnc3c2NCc2cc(Br)ccc2O3)c1` are 5.14 and 6.00.

On to `Fc1ccc2c(c1)CNc1c(Nc3ccc(F)c(Cl)c3)ncnc1O2`, for which the pIC50 is 5.14 in assay [2] and 6.00 in assay [1].

Consider `Fc1ccc(Nc2ncnc3c2NCc2ccccc2O3)cc1Cl`, for which the pIC50 was 5.57 in assay [2] and 5.96 in assay [1].

Take `COc1ccc2c(c1)CNc1c(Nc3ccc(F)c(Cl)c3)ncnc1O2`: the pIC50 in assay [2] was 5.62; in assay [1] it was 6.05.

The values are drawn from ChEMBL document CHEMBL1139019, “Tricyclic azepine derivatives: pyrimido[4,5-b]-1,4-benzoxazepines as a novel class of epidermal growth factor receptor kinase inhibitors” (Bioorg Med Chem Lett, 2006).
